# pEC50: −log10 of the molar value.
# Tests used:
# [1] = target: T1, FPRL1 (Homo sapiens, UniProt P25090); assay: compound-induced calcium activity on FLIPR Tetra in CHO-Gal6 cells stably expressing FPRL1; format: cell-based; conditions: calcium, FLIPR Tetra; for pEC50: tested 0.61 to 10,000 nM, read-out: FPRL1 EC50; for FPRL1 (rel. eff.): relative efficacy
# T1 construct: expressed in transfected cells; host or cells: CHO-Gal6 (CHO cells with G alpha 16)
# T1 sequence (P25090 1-351): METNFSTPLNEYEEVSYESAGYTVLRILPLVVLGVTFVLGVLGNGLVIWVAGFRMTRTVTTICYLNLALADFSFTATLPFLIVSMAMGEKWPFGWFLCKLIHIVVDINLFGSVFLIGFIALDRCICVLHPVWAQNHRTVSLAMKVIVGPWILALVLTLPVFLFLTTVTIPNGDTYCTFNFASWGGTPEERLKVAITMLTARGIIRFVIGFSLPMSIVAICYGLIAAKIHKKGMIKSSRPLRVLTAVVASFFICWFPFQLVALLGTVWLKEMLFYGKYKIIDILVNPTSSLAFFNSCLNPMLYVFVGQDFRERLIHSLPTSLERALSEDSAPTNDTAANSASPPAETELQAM
# Outline: (§1)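 FPRL1 tested in CHO-Gal6 cells and FPR1 in HEK-Gqi5 cells, both stably expressing receptor and plated the day before. Compound-induced calcium response measured on FLIPR Tetra at 0.61 to 10,000 nM. EC50 (nM) and efficacy reported.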
# [2] = target: T2, FPR1 (Homo sapiens, UniProt P21462); assay: compound-induced calcium activity on FLIPR Tetra in HEK-Gqi5 cells stable expressing FPR1; format: cell-based; conditions: class symbol NA, read-out: FPR1 EC50 (NA = Not Active)
# T2 construct: expressed in transfected cells; host or cells: HEK-Gqi5 (HEK cells with chimeric G protein Gqi5)
# T2 sequence (P21462 1-350): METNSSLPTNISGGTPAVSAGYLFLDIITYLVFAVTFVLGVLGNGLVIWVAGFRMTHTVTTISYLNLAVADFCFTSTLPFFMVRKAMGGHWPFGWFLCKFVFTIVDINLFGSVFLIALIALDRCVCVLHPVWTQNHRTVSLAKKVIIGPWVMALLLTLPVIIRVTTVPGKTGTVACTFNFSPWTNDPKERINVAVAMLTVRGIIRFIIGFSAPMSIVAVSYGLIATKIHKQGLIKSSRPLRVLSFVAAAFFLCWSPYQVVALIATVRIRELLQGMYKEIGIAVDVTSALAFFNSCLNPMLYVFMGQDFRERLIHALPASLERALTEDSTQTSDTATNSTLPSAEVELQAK
# Outline: as §1
SMILES,pEC50 [1],FPRL1 (rel. eff.) [1],pEC50 [2]
"N#C[C@@H]1[C@H](C(=O)Nc2ccc(Br)cc2)[C@@H]2CC[C@H]1C21CC1 (racemic) [Compound 89, (+/−)-(1S,2R,3S,4R)—N-(4-Bromophenyl)-3-cyanospiro[bicyclo[2.2.1]heptane-7,1′-cyclopropane]-2-carboxamide]",5.96,0.82,< 5.00
"CN(C(=O)[C@H]1[C@@H](C(=O)O)[C@H]2CC[C@@H]1C21CC1)c1ccc(Br)cc1 (racemic) [Compound 88, (+/−)-(1S,2R,3S,4R)-2-((4-Bromophenyl)(methyl)carbamoyl)spiro[bicyclo[2.2.1]heptane-7,1′-cyclopropane]-3-carboxylate]",6.39,0.94,< 5.00
"CSc1ccc(NC(=O)C2C(C(=O)O)C3C=CC2C32CC2)cc1 (racemic) [Compound 35, (+/−)-(1S,4R,5S,6R)-6-((4-(Methylthio)phenyl)carbamoyl)spiro[bicyclo-[2.2.1]hept[2]ene-7,1′-cyclopropane]-5-carboxylic Acid]",7.85,0.85,< 5.00
"CCc1ccc(NC(=O)C2C(C(=O)O)C3C=CC2C32CC2)cc1 (racemic) [Compound 36, (+/−)-(1S,4R,5S,6R)-6-((4-Ethylphenyl)carbamoyl)spiro[bicyclo[2.2.1]hept[2]ene-7,1′-cyclopropane]-5-carboxylic Acid]",7.23,0.91,< 5.00
"CCc1ccc(NC(=O)[C@H]2[C@@H](C(N)=O)[C@H]3CC[C@@H]2C3(C)C)cc1 (racemic) [Compound 65, (+/−)-(1S,2R,3S,4R)—N^2-(4-Ethylphenyl)-7,7-dimethyl-bicyclo[2.2.1]heptane-2,3-dicarboxamide]",7.46,0.95,< 5.00
"CS(=O)(=O)c1ccc(NC(=O)[C@H]2[C@@H](C(=O)O)[C@H]3CC[C@@H]2C32CC2)cc1 [Compound 45, (1R,2S,3R,4S)-3-((4-(Methylsulfonyl)phenyl)carbamoyl)spiro[bicyclo[2.2.1]heptane-7,1′-cyclopropane]-2-carboxylic Acid]",6.22,0.86,< 5.00
"NC(=O)C1C(C(=O)Nc2ccc(I)cc2)C2C=CC1C21CC1 (racemic) [Compound 50, (+/−)-(1R,4S,5R,6S)—N-5-(4-Iodophenyl)spiro[bicyclo[2.2.1]hept[2]ene-7,1′-cyclopropane]-5,6-dicarboxamide]",8.74,0.85,< 5.00
"CC(C)OC(=O)C1C(C(=O)Nc2ccc(I)cc2)C2C=CC1C21CC1 (racemic) [Compound 18, Iso-propyl(+/−)-(1S,4R,5S,6R)-6-(4-Iodophenylcarbamoyl)spiro[bicyclo[2.2.1]hept[2]ene-7,1′-cyclopropane]-5-carboxylate]",6.73,0.72,< 5.00
"CCc1ccc(NC(=O)C2C(C(N)=O)C3C=CC2C32CC2)cc1 (racemic) [Compound 48, (+/−)-(1R,4S,5R,6S)—N-5-(4-Ethylphenyl)spiro[bicyclo[2.2.1]hept[2]ene-7,1′-cyclopropane]-5,6-dicarboxamide]",7.29,0.79,< 5.00
"CCc1ccc(NC(=O)[C@H]2[C@@H](C(=O)O)[C@H]3CC[C@@H]2C32CC2)cc1 (racemic) [Compound 40, (+/−)-(1R,2S,3R,4S)-3-((4-Ethylphenyl)carbamoyl)spiro[bicyclo[2.2.1]heptane-7,1′-cyclopropane]-2-carboxylic Acid]",7.80,0.79,< 5.00
"C[S+]([O-])c1ccc(NC(=O)C2C(C(=O)O)C3CCC2C32CC2)cc1 (racemic) [Compound 70, (+/−)-(1R,2S,3R,4S)-3-((4-Methylsulfinyl)phenyl)carbamoyl)spiro[bicyclo[2.2.1]-heptane-7,1′-cyclopropane]-2-carboxylic Acid]",6.32,0.95,< 5.00
"O=C(O)C1C(C(=O)Nc2ccc(Br)cn2)C2C=CC1C21CC1 (racemic) [Compound 25, (+/−)-(1S,4R,5S,6R)-6-(5-Bromo-2-pyridylcarbamoyl)spiro[bicyclo[2.2.1]hept[2]ene-7,1′-cyclopropane]-5-carboxylic Acid]",6.83,0.74,< 5.00

# Next, values leading:
pEC50 [1],FPRL1 (rel. eff.) [1],pEC50 [2],SMILES
6.32,0.95,< 5.00,"C[S+]([O-])c1ccc(NC(=O)C2C(C(=O)O)C3CCC2C32CC2)cc1 (racemic) [Compound 44, (+/−)-(1R,2S,3R,4S)-3-((4-(Methylsulfinyl)phenyl)carbamoyl)spiro[bicyclo-[2.2.1]heptane-7,1′-cyclopropane]-2-carboxylic Acid]"
6.15,0.84,< 5.00,"O=C(O)C1C(C(=O)Nc2ccc(SC(F)(F)F)cc2)C2C=CC1C21CC1 (racemic) [Compound 4, (+/−)-(1S,4R,5S,6R)-6-(4-(Trifluoromethylthio)phenylcarbamoyl)Spiro[bicyclo[2.2.1]hept[2]ene-7,1′-cyclopropane]-5-carboxylic Acid]"
5.56,0.67,< 5.00,"NC(=O)c1ccc(NC(=O)C2C(C(=O)O)C3CCC2C32CC2)cc1 (racemic) [Compound 74, (+/−)-(1S,2R,3S,4R)-2-((4-Carbomoylphenyl)carbamoyl)spiro[bicyclo[2.2.1]-heptan-7,1′-cyclopropane]-3-carboxylic Acid]"
7.90,0.95,< 5.00,"CCNC(=O)[C@@H]1[C@H](C(=O)Nc2ccc(Br)cc2)[C@@H]2CC[C@H]1C21CC1 (racemic) [Compound 78, (+/−)-(1S,2R,3S,4R)—N^2-(4-Bromophenyl)-N^3-ethylspiro[bicyclo[2.2.1]heptane-7,1′-cyclopropane]-2,3-dicarboxamide]"
7.42,1.0,< 5.00,"CCc1ccc(NC(=O)[C@H]2[C@@H](C(N)=O)[C@H]3CC[C@@H]2C32CC2)cc1 (racemic) [Compound 68, (+/−)-(1S,2R,3S,4R)—N^2-(4-Ethyl-phenyl)-spiro[bicyclo[2.2.1]heptane-7,1′-cyclopropane]-2,3-dicarboxamide]"
8.11,0.87,< 5.00,"NC(=O)C1C(C(=O)Nc2ccc(I)cc2)C2C=CC1C21CC1 (racemic) [Compound 69, (+/−)-(1R,4S,5R,6S)—N^5-(4-Iodophenyl)spiro[bicyclo[2.2.1]hept[2]ene-7,1′-cyclopropane]-5,6-dicarboxamide]"
6.61,0.76,< 5.00,"CCOC(=O)C1C(C(=O)Nc2ccc(I)cc2)C2C=CC1C21CC1 (racemic) [Compound 17, Ethyl(+/−)-(1S,4R,5S,6R)-6-(4-Iodophenylcarbamoyl)spiro[bicyclo[2.2.1]hept[2]ene-7,1′-cyclopropane]-5-carboxylate]"
7.82,0.86,< 5.00,"CSc1ccc(NC(=O)[C@H]2[C@@H](C(N)=O)[C@H]3CC[C@@H]2C32CC2)cc1 (racemic) [Compound 53, (+/−)-(1S,2R,3S,4R)—N2-(4-(Methylthio)phenyl)spiro[bicyclo[2.2.1]heptane-7,1′-cyclopropane]-2,3-dicarboxamide]"
